The source of these data is patent publication US12371454B2, “Cyclic peptide compound having Kras inhibitory action” (priority 2019, dated 2025).

Positions of bridges follow the written chain, without caps; N, C: chain ends. Non-standard residues stand in square brackets, D forms with d. Residues, ends and D or L forms follow the SMILES beside them. *: point of attachment. hPhe(3-Cl-4-CF3) = N[C@@H](CCc1ccc(C(F)(F)F)c(Cl)c1)C(=O)O; NMePhe(4-Me) = CN[C@@H](Cc1ccc(C)cc1)C(=O)O; NMePhe(4-F) = CN[C@@H](Cc1ccc(F)cc1)C(=O)O; NMeNva(5,5-F2) = CN[C@@H](CCC(F)F)C(=O)O; NMeGly(cPent) = CN[C@H](C(=O)O)C1CCCC1; NMeCha = CN[C@@H](CC1CCCCC1)C(=O)O; NMeChg = CN[C@H](C(=O)O)C1CCCCC1; NMeF = CN[C@@H](Cc1ccccc1)C(=O)O; NMeD = CN[C@@H](CC(=O)O)C(=O)O; dNMeD = CN[C@H](CC(=O)O)C(=O)O; NMeL = CN[C@@H](CC(C)C)C(=O)O; Cba = N[C@@H](CC1CCC1)C(=O)O; NMeV = CN[C@H](C(=O)O)C(C)C; d(β3hA) = C[C@@H](N)CC(=O)O; NMeS = CN[C@@H](CO)C(=O)O; Morpholide = C1CN(*)CCO1; NMeA = CN[C@@H](C)C(=O)O; Piperidide = C1CCN(*)CC1; Pyrrolidide = C1CCN(*)C1; dNMeA = CN[C@H](C)C(=O)O; Ac5c = NC1(C(=O)O)CCCC1; Aze = O=C(O)[C@@H]1CCN1; Abu = CC[C@H](N)C(=O)O; Sar = CNCC(=O)O; Propyl = CCC*

One may read the IC50 as the concentration that gives 50% inhibition.

T1 sequence (P01116 1-188 isoform P01116-2 G12D): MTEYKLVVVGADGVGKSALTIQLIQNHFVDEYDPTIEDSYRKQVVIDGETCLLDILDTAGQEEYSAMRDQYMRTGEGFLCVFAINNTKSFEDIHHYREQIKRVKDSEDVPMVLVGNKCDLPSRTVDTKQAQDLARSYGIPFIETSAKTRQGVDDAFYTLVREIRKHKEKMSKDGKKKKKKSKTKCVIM

This assay has as its target T1, Kras and SOS1 (biotin-tagged human Kras loaded with GDP, His-tagged human SOS1) (Homo sapiens, UniProt P01116, G12D).
T1 construct: made in house; host or cells: E. coli (stated for Kras only)
Put plainly: Protein-protein interaction inhibition between Kras and SOS1 (KrasGl2D-SOS PPI) using AlphaScreen. In kind it is binding. As to conditions: AlphaScreen; biotin-tagged human Kras loaded with GDP, His-tagged human SOS1; read-out: KRAS G12D-SOS PPI IC50. The procedure, abridged:
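Binding between SOS1 and Kras is detected as bead-proximity luminescence: illuminate Ni-conjugated donors (680 nm), collect 520-620 nm emission from streptavidin-conjugated acceptors; Kras carries biotin and GDP loaded after purification, SOS1 carries a His tag.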
Turning to `CC(C)C[C@@H]1NC(=O)[C@H](CC(C)C)N(C)C(=O)C[C@@H](C(=O)N2CCCCC2)N(C)C(=O)[C@H](C(C)C)N(C)C(=O)C2(CCCC2)NC(=O)[C@@H]2CCCN2C(=O)[C@H](CCc2ccc(C(F)(F)F)c(Cl)c2)NC(=O)CN(C)C(=O)[C@H](CC2CCCCC2)N(C)C(=O)[C@@H]2CCN2C(=O)[C@H](C)N(C)C1=O` [Compound 1754] ([NMeL]L[NMeA][Aze][NMeCha][Sar][hPhe(3-Cl-4-CF3)]P[Ac5c][NMeV][NMeD]-Piperidide; lactam N-11), the IC50 came out at 67 nM.
For `CC[C@H](C)[C@@H]1NC(=O)[C@H](C)N(C)C(=O)C[C@@H](C(=O)N2CCCCC2)N(C)C(=O)[C@H](C(C)C)N(C)C(=O)C2(CCCC2)NC(=O)[C@@H]2CCCN2C(=O)[C@H](CCc2ccc(C(F)(F)F)c(Cl)c2)NC(=O)[C@@H](C)N(C)C(=O)[C@H](Cc2ccc(F)cc2)N(C)C(=O)CN(C)C(=O)CN(C)C1=O` [Compound 1755] ([NMeA]I[Sar][Sar][NMePhe(4-F)][dNMeA][hPhe(3-Cl-4-CF3)]P[Ac5c][NMeV][NMeD]-Piperidide; lactam N-11), the concentration for half-maximal inhibition (IC50) came to 7.9 nM.
With `CC[C@H](C)[C@@H]1NC(=O)[C@H](CC(C)C)N(C)C(=O)C[C@@H](C(=O)N(C)C)N(C)C(=O)[C@H](C2CCCC2)N(C)C(=O)C2(CCCC2)NC(=O)[C@@H]2CCCN2C(=O)[C@H](CCc2ccc(C(F)(F)F)c(Cl)c2)NC(=O)CN(C)C(=O)[C@H](Cc2ccc(C)cc2)N(C)C(=O)[C@@H]2CCN2C(=O)[C@H](C)N(C)C1=O` [Compound 1756] ([NMeL]I[NMeA][Aze][NMePhe(4-Me)][Sar][hPhe(3-Cl-4-CF3)]P[Ac5c][NMeGly(cPent)][NMeD]-NMe2; lactam N-11) the figure was 0.54 nM; with `CC(C)C[C@H]1C(=O)N[C@@H](CC2CCC2)C(=O)N(C)CC(=O)N(C)CC(=O)N(C)[C@@H](CC2CCCCC2)C(=O)N(C)CC(=O)N[C@@H](CCc2ccc(C(F)(F)F)c(Cl)c2)C(=O)N2CCC[C@H]2C(=O)NC2(CCCC2)C(=O)N(C)[C@@H](C2CCCCC2)C(=O)N(C)[C@H](C(=O)N2CCCCC2)CC(=O)N1C` [Compound 1759] ([NMeL][Cba][Sar][Sar][NMeCha][Sar][hPhe(3-Cl-4-CF3)]P[Ac5c][NMeChg][NMeD]-Piperidide; lactam N-11), 2.7 nM; with `CC(C)C[C@H]1C(=O)N[C@@H](CO)C(=O)N(C)[C@@H](C)C(=O)N2CC[C@H]2C(=O)N(C)[C@@H](CC2CCCCC2)C(=O)N(C)CC(=O)N[C@@H](CCc2ccc(C(F)(F)F)c(Cl)c2)C(=O)N2CCC[C@H]2C(=O)NC2(CCCC2)C(=O)N(C)[C@@H](C(C)C)C(=O)N(C)[C@H](C(=O)N2CCCCC2)CC(=O)N1C` [Compound 1768] ([NMeL]S[NMeA][Aze][NMeCha][Sar][hPhe(3-Cl-4-CF3)]P[Ac5c][NMeV][NMeD]-Piperidide; lactam N-11), 140 nM.
The figure for `CCCOC[C@H]1C(=O)N(C)[C@H](C(=O)N2CCCCC2)CC(=O)N(C)[C@@H](CC(C)C)C(=O)N[C@@H]([C@@H](C)CC)C(=O)N(C)CC(=O)N(C)CC(=O)N(C)[C@@H](CC2CCCCC2)C(=O)N(C)CC(=O)N[C@@H](CCc2ccc(C(F)(F)F)c(Cl)c2)C(=O)N2CCC[C@H]2C(=O)NC2(CCCC2)C(=O)N1C` [Compound 1771] ([NMeL]I[Sar][Sar][NMeCha][Sar][hPhe(3-Cl-4-CF3)]P[Ac5c][NMeS](Propyl)[NMeD]-Piperidide; lactam N-11) is 78 nM.
Consider `CC[C@@H]1NC(=O)[C@H](CC(C)C)N(C)C(=O)C[C@@H](C(=O)N2CCCCC2)N(C)C(=O)[C@H](C2CCCCC2)N(C)C(=O)C2(CCCC2)NC(=O)[C@@H]2CCCN2C(=O)[C@H](CCc2ccc(C(F)(F)F)c(Cl)c2)NC(=O)CN(C)C(=O)[C@H](CC2CCCCC2)N(C)C(=O)CN(C)C(=O)CN(C)C1=O` [Compound 1775] ([NMeL][Abu][Sar][Sar][NMeCha][Sar][hPhe(3-Cl-4-CF3)]P[Ac5c][NMeChg][NMeD]-Piperidide; lactam N-11), for which the IC50 came to 4 nM.
Turning to `CC[C@H](C)[C@@H]1NC(=O)[C@H](C)N(C)C(=O)C[C@@H](C)NC(=O)[C@H](C(C)C)N(C)C(=O)C2(CCCC2)NC(=O)[C@@H]2CCCN2C(=O)[C@H](CCc2ccc(C(F)(F)F)c(Cl)c2)NC(=O)CN(C)C(=O)[C@H](Cc2ccccc2)N(C)C(=O)[C@@H]2CCCN2C(=O)CN(C)C1=O` [Compound 1778] (cyclo([Ac5c][NMeV][d(β3hA)][NMeA]I[Sar]P[NMeF][Sar][hPhe(3-Cl-4-CF3)]P)), the IC50 came to 7.3 nM.
On to `CC[C@H](C)[C@@H]1NC(=O)[C@H](CC(C)C)N(C)C(=O)C[C@@H](C(=O)N(C)C)N(C)C(=O)[C@H](C2CCCC2)N(C)C(=O)C2(CCCC2)NC(=O)[C@@H]2CCCN2C(=O)[C@H](CCc2ccc(C(F)(F)F)c(Cl)c2)NC(=O)CN(C)C(=O)[C@H](Cc2ccc(C)cc2)N(C)C(=O)CN(C)C(=O)CN(C)C1=O` [Compound 1779] ([NMeL]I[Sar][Sar][NMePhe(4-Me)][Sar][hPhe(3-Cl-4-CF3)]P[Ac5c][NMeGly(cPent)][NMeD]-NMe2; lactam N-11), for which the 50% inhibitory concentration (IC50) turned out to be 0.52 nM.
With `CC[C@H](C)[C@@H]1NC(=O)[C@H](CC(C)C)N(C)C(=O)C[C@H](C(=O)N2CCCC2)N(C)C(=O)[C@H](C2CCCCC2)N(C)C(=O)C2(CCCC2)NC(=O)[C@@H]2CCCN2C(=O)[C@H](CCc2ccc(C(F)(F)F)c(Cl)c2)NC(=O)CN(C)C(=O)[C@H](CC2CCCCC2)N(C)C(=O)CN(C)C(=O)CN(C)C1=O` [Compound 1781] ([NMeL]I[Sar][Sar][NMeCha][Sar][hPhe(3-Cl-4-CF3)]P[Ac5c][NMeChg][dNMeD]-Pyrrolidide; lactam N-11), the IC50 amounted to 49 nM.
With `CC[C@H](C)[C@@H]1NC(=O)[C@H](CC(C)C)N(C)C(=O)C[C@@H](C(=O)N2CCCCC2)N(C)C(=O)[C@H](CCC(F)F)N(C)C(=O)C2(CCCC2)NC(=O)[C@@H]2CCCN2C(=O)[C@H](CCc2ccc(C(F)(F)F)c(Cl)c2)NC(=O)CN(C)C(=O)[C@H](CC2CCCCC2)N(C)C(=O)CN(C)C(=O)CN(C)C1=O` [Compound 1782] ([NMeL]I[Sar][Sar][NMeCha][Sar][hPhe(3-Cl-4-CF3)]P[Ac5c][NMeNva(5,5-F2)][NMeD]-Piperidide; lactam N-11) the figure was 2.2 nM; with `CC[C@H](C)[C@@H]1NC(=O)[C@H](C)N(C)C(=O)C[C@@H](C(=O)N2CCOCC2)N(C)C(=O)[C@H](C(C)C)N(C)C(=O)C2(CCCC2)NC(=O)[C@@H]2CCCN2C(=O)[C@H](CCc2ccc(C(F)(F)F)c(Cl)c2)NC(=O)[C@@H](C)N(C)C(=O)[C@H](CC2CCCCC2)N(C)C(=O)[C@@H]2CCCN2C(=O)CN(C)C1=O` [Compound 1788] ([NMeA]I[Sar]P[NMeCha][dNMeA][hPhe(3-Cl-4-CF3)]P[Ac5c][NMeV][NMeD]-Morpholide; lactam N-11), 4.3 nM; with `CC[C@H](C)[C@@H]1NC(=O)[C@H](CC(C)C)N(C)C(=O)C[C@H](C(=O)N2CCCC2)N(C)C(=O)[C@H](C2CCCC2)N(C)C(=O)C2(CCCC2)NC(=O)[C@@H]2CCCN2C(=O)[C@H](CCc2ccc(C(F)(F)F)c(Cl)c2)NC(=O)CN(C)C(=O)[C@H](CC2CCCCC2)N(C)C(=O)CN(C)C(=O)CN(C)C1=O` [Compound 1794] ([NMeL]I[Sar][Sar][NMeCha][Sar][hPhe(3-Cl-4-CF3)]P[Ac5c][NMeGly(cPent)][dNMeD]-Pyrrolidide; lactam N-11), 40 nM.
